# Source: US20220323406A1, “METHODS AND COMPOSITIONS FOR DIFFERENTIATING STEM CELLS” (Massachusetts Institute of Technology, priority 2019, published 2022)
# Legend:
# [1] = mouse, in vivo, po
# [2] = tested on: small intestine crypts (Paneth, stem, goblet cells); assay: Animal study: histological quantification of Paneth, Olfm4+ stem and PAS+ goblet cells per crypt; assay type: in vivo, mouse; settings: every other day, day 14
# Protocol: Following a similar protocol as previously reported for SINE treatment in the context of cancer (Arango et al., 2017; […] Zheng et al., 2014), KPT-330 was administered at a dose 10 mg/kg via oral gavage every other day over a two-week span in C57BL/6 wild-type mice, and body weight was monitored for any clear toxicity. […] Applicants tracked animal weight every other day, and at day 14 collected the proximal and distal thirds of the small intestine for histological quantification of Paneth, stem, and goblet populations (FIG. 26A). […] Samples were prepared for histology by the ‘swiss-roll’ technique, and following staining, were blinded and randomized before manual counting of well-preserved features. […] Applicants additionally quantified the abundance of Olfm4+ stem cells as well as PAS+ goblet cells within the same animals to ascertain whether the effect of SINE treatment was restricted to the Paneth cell compartment (representative images FIG. 30D,E). […] Animal study. 8-10 weeks old wild type C57BL/6NCrl male mice (#027) were purchased from Charles River. Mice were housed under 12 h light/dark cycle and provided food and water ad libitum. 0.01, 0.05, 0.2 or 10 mg/kg of KPT-330 were injected orally using a disposable gavage needle (Cadence Science, #9921) at 10 μL/g weight. KPT-330 was dissolved in DMSO initially and further diluted in sterile PBS containing Pluronic F-68 Non-ionic Surfactant (Gibco, #24040032) and Polyvinylpyrrolidone (PVP, Alfa Aesar, A14315, average M.W. 58,000); the final concentration of DMSO is 2%, Pluronic is 0.5%, and PVP is 0.5%. KPT-330 was administered every other day for two weeks, 7 injections in total (days 0, 2, 4, 6, 8, 10, 12), and mice were sacrificed at day 14. All animal studies are approved by the Committee on Animal Care (CAC) at Massachusetts Institute of Technology. Histology. The small intestine (SI) was collected from mice and divided into three parts. Only proximal and distal SI were kept in PBS, and medial SI was discarded. Each SI was opened longitudinally and washed in PBS. […] Fixed tissues were embedded in paraffin, and 4 μm sections were mounted on slides. For immunohistochemistry, slides were deparaffinized, antigen retrieved using heat-induced epitope retrieval at 97° C. for 20 min using citrate buffer pH 6, and probed with appropriate antibodies followed by DAB staining. For McManus Periodic Acid Schiff (PAS) reaction, slides were deparaffinized, oxidized in periodic acid, and stained with Schiff reagent (Poly Scientific, s272) followed by counterstaining with Harris Hematoxylin. Slides were scanned by Aperio Slide Scanner (Leica) and cells were counted on Aperio eSlide Manager. Slides were randomized before counting, and all cell types were counted in all well-preserved crypts along the longitudinal crypt-villus axis.
# [3] = tested on: lysozyme (LYZ) in intestinal organoids; assay: Western blotting of lysozyme in 3D-cultured intestinal organoids; assay type: cell-based, mouse; settings: ENR+CV, ENR+CD or ENR, 6 days
# Excerpt: Western blotting. ISC-enriched organoids cultured in 3D Matrigel with ENRCV media were passaged to 24-well plate in 3D Matrigel with ENRCV. At day zero, media were replaced to ENR or ENRCD with or without indicated compounds, and media were replaced every other day. At day six, cells were harvested from Matrigel by mechanical disruption and suspended in basal media. Cell pellets were lysed with Pierce® IP lysis buffer (ThermoFisher, 87787) containing Halt™ Protease Inhibitor Cocktail, EDTA-Free (ThermoFisher, 87785) after 3-minute centrifuge at 300×g at 4° C. Cell extracts were resolved by NuPAGE® SDS-PAGE Gel system (ThermoFisher) and electroblotted onto polyvinylidene difluoride membranes using Criterion™ Blotter (Biorad). The membranes were blocked with 2% Blotting-Grade Blocker (Biorad, 1706404) in TBS-T (50 mM Tris-HCl, 150 mM NaCl, and 0.1% Tween 20, pH 8.0) and then probed with appropriate antibodies. Detection was performed using ECL Select™ Western Blotting Detection Reagent (Amersham, 45-000-999) and ImageQuant LAS4000 (GE Healthcare).
# Western blotting. Organoid-containing gel was homogenized in basal medium and centrifuged at 300 rcf for 3 min. Organoid pellet was lysed with ice-cold Pierce IP Lysis Buffer (Thermo Fisher Scientific, #87787) containing Halt Protease Inhibitor Cocktail, EDTA-Free (Thermo Fisher Scientific, #87785) and incubated on ice for 20 min. The lysate was centrifuged at 17,000 rcf for 10 min, and the supernatant was combined with NuPAGE LDS Sample Buffer (Thermo Fisher Scientific, NP0007). Protein concentration was determined by Pierce 660 nm Protein Assay (Thermo Fisher Scientific, #22660) and normalized to the lowest concentration among each sample set. […] Chemiluminescent signals were detected by LAS4000 (GE Healthcare) using Amersham ECL Select Western Blotting Detection Reagent (GE Healthcare, #45-000-999), and total protein signals were obtained by Odyssey Imaging System (LI-COR Biosciences) using REVERT Total Protein Stain Kit (LI-COR Biosciences, #926-11010).
smiles,measurement,setting,value
O=C(/C=C\n1cnc(-c2cc(C(F)(F)F)cc(C(F)(F)F)c2)n1)NNc1cnccn1 [KPT-330],toxicity to mice (body weight),[1],toxic to mice
same,"Olfm4+ stem cells, distal small intestine",[2]; 0.01 mg/kg oral,significant increase in Olfm4+ stem cells
same,"Paneth cells per crypt, distal small intestine",[2]; 0.01 mg/kg oral,significant increases in Paneth abundance
same,"Paneth cells per crypt, proximal small intestine",[2]; 0.01 mg/kg oral,significant increases in Paneth abundance
same,"Paneth cells per crypt, proximal small intestine",[2]; 0.2 mg/kg oral,significant increases in Paneth abundance
same,PAS+ goblet cell population,[2]; 0.01-0.2 mg/kg oral,did not overserve any significant changes
same,LYZ abundance per-mass protein (Western blot),[3],appreciably increase LYZ abundance
